The assay concerns the target T1, recombinant human FAK1 (Homo sapiens, UniProt Q05397).
T1 construct: fused on or other part: N-terminal 6xHis tag
As to the kind of experiment: FAK1 HTRF assay. Type of assay: biochemical. Here is the method: Active FAK1 was prepared for use in the Homogeneous Time-Resolved Fluorescence (HTRF) assay. Briefly, N-terminal 6 His tagged recombinant human FAK1, from residue 692-end (GenBank accession no. L13616) was expressed by Bacculovirus in sf9 cells. […] A 1.6 mg/mL (45 μM) stock was used in the HTRF assay at a final concentration of 10 nM.
Gastrin precursor (tyr87) biotinylated peptide which contains the residues surrounding tyrosine 87 (EEAY*GWM) of gastrin precursor was obtained (Cell Signaling Tech, Item no. 1310, Lot 7). The peptide was provided at a stock concentration of 6 μM, and used a final concentration of 0.5 μM in the HTRF assay.
10 mM stock in 100 μL Enzyme assay buffer pH7.4 was prepared freshly and used at a final concentration of 10 μM in the assay.
Powders were dissolved in 100% DMSO to a final stock concentration of 10 mM. The volume needed (in μL) to add for 10 mM=mg powder is 10^5/MW of compound. The final compound concentration in the assay plate started at 10 μM.
Pfizer FAK inhibitor PF-562271 (N-methyl-N-(3-(((2-((2-oxoindolin-5-yl)amino)-5-(trifluoromethyl)pyrimidin-4-yl)amino)methyl)pyridin-2-yl)methanesulfonamide) was prepared as per the reported procedure from US Patent Publication No. 2005/256145A1.
Streptavidin-Allophycocyanin was obtained (Prozyme, Cat. No. PJ25S. SA-APC was provided at a stock concentration of 2.06 mg/mL, where APC concentration was 11.6 μM and the streptavidin concentration was 15.5 μM. SA-APC was used at a final concentration of 12 nM in the assay (based on streptavidin concentration).
This reagent was obtained from Perkin ElmerAD0068. Europium-W1024-PT-66 Anti Phospho Tyrosine Ab is a monoclonal IgG1 that recognizes phospho tyrosine peptide. 100 μg/mL stock was used at a final concentration of 0.1 nM in the assay.
• 1. The compound dilutions were made by TECAN liquid handler as per the scheme in FIG. 1. • 2. 16 μL of diluted compound was added to each well of the assay plate using TECAN liquid handler. • 3. 20 μL of substrate mix (biotinylated gastrin precursor) was added into each well of the assay plate manually. • 4. 10 μL of enzyme mix (FAK1) was added to each well except mins. • 5. The plate was incubated at rt for 45 min with shaking. • 6. The HTRF mix was prepared and 75 μL was added to the HTRF plate. • 7. After the incubation was over, 10 μL of the mixture was transferred to the HTRF assay plate and incubated for 45 min at rt with shaking. • 8. The readings were taken in Pherastar in HTRF mode (ext 337 nm, em 665 & 620 nm) • 9. The results were analyzed using Graphpad Prism® software after calculation the z factor signal window and % inhibition. • 10. The IC50 was calculated.
Background: In TR-FRET formats the signal depends on donor and acceptor labels being close together.

Here are results for 53 molecules from patent US20160222014A1, “COMPOUNDS FOR REGULATING FAK AND/OR SRC PATHWAYS” (ASANA BIOSCIENCES, LLC, priority 2013, published 2016).

T1 sequence (Q05397 422-680 limits assumed): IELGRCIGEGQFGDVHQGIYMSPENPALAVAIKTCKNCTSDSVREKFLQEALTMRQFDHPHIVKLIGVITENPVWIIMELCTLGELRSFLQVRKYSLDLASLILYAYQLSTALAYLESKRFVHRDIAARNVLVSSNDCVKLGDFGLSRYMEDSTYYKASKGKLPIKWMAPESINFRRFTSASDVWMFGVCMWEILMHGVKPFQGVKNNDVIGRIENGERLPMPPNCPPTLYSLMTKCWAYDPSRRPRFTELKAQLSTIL

For `CS(=O)(=O)c1ccc(Nc2cc3c(ccn3S(=O)(=O)c3cccc(OC(F)(F)F)c3)cn2)cc1` [Example 51], the IC50 is greater than 1000 nM.
In the case of `CC1CN(c2ccc(Nc3cc4c(ccn4S(=O)(=O)c4ccccc4C#N)cn3)cc2)CC(C)N1` (centres unmarked) [Example 529], the IC50 was less than 20 nM.
In the case of `CC1CN(c2ccc(Nc3ncc4ccn(Cc5ccccc5N(C)S(C)(=O)=O)c4n3)cc2)CC(C)N1` (centres unmarked) [Example 523] it was less than 20 nM; in that of `CC(=O)Nc1cccc(Nc2ncc3ccn(S(=O)(=O)c4ccc(OC(F)(F)F)cc4)c3n2)c1` [Example 44], greater than 1000 nM; in that of `CN(c1ccc(F)cc1Cn1ccc2cnc(Nc3ccc(N4CCNCC4)cc3)nc21)S(C)(=O)=O` [Example 805], less than 20 nM.
For `CN(c1ncccc1CN1C(=O)C(C)(C)c2cnc(Nc3ccc(N4CCNCC4)cc3)nc21)S(C)(=O)=O` [Example 380] the value was greater than 1000 nM; for `COc1cc(Nc2ncc3ccn(Cc4cc(F)ccc4N(C)S(C)(=O)=O)c3n2)ccc1N1CCNCC1` [Example 801], less than 20 nM; for `CN(C)C1CCC(c2ccc(Nc3ncc4ccn(Cc5cc(F)ccc5N(C)S(C)(=O)=O)c4n3)cc2)CC1` (centres unmarked) [Example 806], less than 20 nM.
In the case of `CN(c1ccccc1Cn1ccc2cnc(Nc3ccc(N4CCN5C(=O)CCC5C4)cc3)nc21)S(C)(=O)=O` (centres unmarked) [Example 436] it was less than 20 nM; in that of `CC(=O)Nc1cccc(Nc2cc3nn(Cc4ccccc4OC(F)F)cc3cn2)c1` [Example 63], greater than 1000 nM; in that of `Cc1cc(Nc2ncc3ccn(Cc4cc(F)ccc4N(C)S(C)(=O)=O)c3n2)ccc1N1CCC(N(C)C)CC1` [Example 794], less than 20 nM.
For `CN(c1ccc(F)cc1Cn1ccc2cnc(Nc3ccc(N4CCC(N)CC4)cc3)nc21)S(C)(=O)=O` [Example 799], the IC50 was less than 20 nM.
For `CN(c1ccccc1Cn1ccc2cnc(Nc3ccc(N4CCC(C)(O)CC4)cc3)nc21)S(C)(=O)=O` [Example 638] the value was less than 20 nM.
As to `O=S(=O)(c1cccc2cccnc12)n1ncc2cnc(Nc3ccc(N4CCN(CCO)CC4)cc3)cc21` [Example 351], the IC50 was less than 20 nM.
For `CC(C)C(=O)Nc1ccc(Nc2ncc3ccn(S(=O)(=O)c4cccc5cccnc45)c3n2)cc1` [Example 324] the value was less than 20 nM.
For `Cc1cc(Nc2ncc3ccn(Cc4cc(F)ccc4N(C)S(C)(=O)=O)c3n2)ccc1C1CCNCC1` [Example 782] the value was less than 20 nM; for `Cc1ccc(N(C)S(C)(=O)=O)c(Cn2ccc3cnc(Nc4ccc(N5CCN[C@@H](C)C5)cc4)nc32)c1` [Example 766], less than 20 nM; for `CN(c1ncccc1Cn1ccc2cnc(Nc3ccc(S(=O)(=O)C(F)F)cc3)cc21)S(C)(=O)=O` [Example 25], greater than 1000 nM.
Consider `Cc1ccc(N(C)S(C)(=O)=O)c(Cn2ccc3cnc(Nc4ccc(C5CCC(N(C)C)CC5)cc4)nc32)c1` (centres unmarked) [Example 980], for which the IC50 was less than 20 nM.
On to `CCC1CN(c2ccc(Nc3ncc4ccn(Cc5cc(OC)ccc5N(C)S(C)(=O)=O)c4n3)cc2)CCN1` (centres unmarked) [Example 704], for which the IC50 is less than 20 nM.
For `CN(C)C1CCN(c2ccc(Nc3ncc4ccn(Cc5cc(Cl)ccc5N(C)S(C)(=O)=O)c4n3)cc2)CC1` [Example 796] the value was less than 20 nM; for `CN(c1ccccc1Cn1ccc2cnc(Nc3ccc(N4CCC(CO)CC4)cc3)nc21)S(C)(=O)=O` [Example 566], less than 20 nM.
In the case of `O=S(=O)(c1ccc(OC(F)(F)F)cc1)n1ccc2cnc(Nc3ccc4ncsc4c3)cc21` [Example 49] it was greater than 1000 nM.
Regarding `COc1cc(Nc2ncc3ccn(S(=O)(=O)c4cccc5cccnc45)c3n2)ccc1NC(=O)C1CCC1` [Example 373], the IC50 was less than 20 nM.
In the case of `COc1ccc(N(C)S(C)(=O)=O)c(Cn2ccc3cnc(Nc4ccc(N5CCNCC5)c(F)c4)nc32)c1` [Example 700] it was less than 20 nM; in that of `CNC(=O)Cc1ccccc1Cn1ccc2cnc(Nc3ccc(N4CCN(C)CC4)cc3)nc21` [Example 474], greater than 1000 nM.
In the case of `CN(c1ccc(F)cc1Cn1ccc2cnc(Nc3ccc4c(c3)CC(=O)N4)nc21)S(C)(=O)=O` [Example 792] it was less than 20 nM; in that of `CN(c1ccc(F)cc1Cn1ccc2cnc(Nc3ccc(N4CCNCC4)c(F)c3)nc21)S(C)(=O)=O` [Example 802], less than 20 nM.
Take `C[C@@H]1CN(c2ccc(Nc3ncc4ccn(Cc5ccccc5N(C)S(C)(=O)=O)c4n3)cc2C2CC2)CCN1` [Example 710]: the IC50 was less than 20 nM.
`CNC(=O)c1ccc(Nc2ncc3ccn(Cc4cc(C)ccc4N(C)S(C)(=O)=O)c3n2)cc1` [Example 986]: the IC50 is less than 20 nM.
`CNC(=O)c1ccc(Nc2ncc3ccn(Cc4cc(F)ccc4N(C)S(C)(=O)=O)c3n2)cc1` [Example 983]: the IC50 is less than 20 nM.
As for `CC(C)N1CCN(c2ccc(Nc3ncc4ccn(Cc5ccccc5N(C)S(C)(=O)=O)c4n3)cc2)CC1` [Example 484], the IC50 was less than 20 nM.
For `COc1ccc(N(C)S(C)(=O)=O)c(Cn2ccc3cnc(Nc4ccc(N5CCC(N(C)C)CC5)c(C)c4)nc32)c1` [Example 705] the value was less than 20 nM; for `O=C1CCc2cc(Nc3ncc4ccn(Cc5ccccc5OC(F)(F)F)c4n3)ccc2N1` [Example 83], less than 20 nM; for `CN(c1ccccc1Cn1ccc2cnc(Nc3ccc(NC(=O)C4CC4)cc3)nc21)S(C)(=O)=O` [Example 450], less than 20 nM.
In the case of `CN(C)C1CN(c2ccc(Nc3ncc4ccn(Cc5ccccc5N(C)S(C)(=O)=O)c4n3)cc2)C1` [Example 588] it was less than 20 nM; in that of `CC(=O)Nc1ccc(Nc2cc3c(cn2)c(C)nn3Cc2cccnc2N(C)S(C)(=O)=O)cc1` [Example 72], greater than 1000 nM; in that of `Cc1ccc(N(C)S(C)(=O)=O)c(Cn2ccc3cnc(Nc4ccc(N5CCC(N)CC5)cc4)nc32)c1` [Example 977], less than 20 nM.
For `CN(c1ncccc1Cn1ccc2cnc(Nc3ccc4c(c3)C(=O)NC4=O)nc21)S(C)(=O)=O` [Example 74] the value was greater than 1000 nM.
Regarding `CC(=O)Nc1ccccc1Nc1ncc2ccn(Cc3cccnc3N(C)S(C)(=O)=O)c2n1` [Example 71], the IC50 was greater than 1000 nM.
Regarding `CN1CCC(NC(=O)c2ccc(Nc3ncc4c(n3)N(S(=O)(=O)c3cccc5cccnc35)CC4(C)C)cc2)CC1` [Example 702], the IC50 is less than 20 nM.
For `COc1cc(Nc2cc3c(ccn3Cc3cccnc3)cn2)cc(OC)c1OC` [Example 6] the value was greater than 1000 nM; for `CSc1cccc(Nc2ncc3cnn(Cc4cccnc4)c3n2)c1` [Example 10], greater than 1000 nM; for `CN(c1ccccc1Cn1ccc2cnc(Nc3ccc(N4CCNCC4)c(F)c3)cc21)S(C)(=O)=O` [Example 322], less than 20 nM.
For `CC(=O)Nc1ccc(Nc2cc3c(ccn3S(=O)(=O)c3ccc(OC(F)(F)F)cc3)cn2)cc1` [Example 47], the IC50 was greater than 1000 nM.
Consider `CNC1CCN(c2ccc(Nc3ncc4ccn(Cc5cc(OC)ccc5N(C)S(C)(=O)=O)c4n3)cc2)CC1` [Example 709], for which the IC50 was less than 20 nM.
Regarding `CN(C)C1CCN(c2ccc(Nc3ncc4ccn(Cc5cc(F)ccc5N(C)S(C)(=O)=O)c4n3)cc2)CC1` [Example 778], the IC50 is less than 20 nM.
In the case of `O=C(C1CC1)N1CCN(c2ccc(Nc3cc4c(cn3)cnn4S(=O)(=O)c3cccc4cccnc34)cc2)CC1` [Example 352] it was less than 20 nM; in that of `Cc1ccc(N(C)S(C)(=O)=O)c(Cn2ccc3cnc(Nc4ccc(N5CCNCC5)cc4)nc32)c1` [Example 759, N-methyl-N-(4-methyl-2-((2-((4-(piperazin-1-yl)phenyl)amino)-7H-pyrrolo[2,3-d]pyrimidin-7-yl)methyl)phenyl)methanesulfonamide], less than 20 nM.
As for `CC(=O)Nc1cccc(Nc2cc3c(ccn3S(=O)(=O)c3ccc(OC(F)(F)F)cc3)cn2)c1` [Example 46], the IC50 is greater than 1000 nM.
In the case of `Cc1cn(S(=O)(=O)c2cccc3cccnc23)c2nc(Nc3ccc(N4CCNCC4)cc3)ncc12` [Example 769] it was less than 20 nM.
Take `CN(c1ncccc1Cn1ccc2cnc(Nc3ccc(C#N)nc3)cc21)S(C)(=O)=O` [Example 22]: the IC50 is greater than 1000 nM.
Regarding `Cc1ccc(N(C)S(C)(=O)=O)c(Cn2ccc3cnc(Nc4ccc(N5CCC(N(C)C)CC5)cc4)nc32)c1` [Example 761], the IC50 is less than 20 nM.

The IC50 is the concentration that gives 50% inhibition.
